In US20250074910A1, “MENIN INHIBITOR AND USE THEREOF” (HITGEN INC., priority 2021, published 2025):

Molecular target: Menin/MLL-4-43 peptide interaction (Homo sapiens (Human), UniProt O00255)
Sequence (O00255 whole entry, species assumed): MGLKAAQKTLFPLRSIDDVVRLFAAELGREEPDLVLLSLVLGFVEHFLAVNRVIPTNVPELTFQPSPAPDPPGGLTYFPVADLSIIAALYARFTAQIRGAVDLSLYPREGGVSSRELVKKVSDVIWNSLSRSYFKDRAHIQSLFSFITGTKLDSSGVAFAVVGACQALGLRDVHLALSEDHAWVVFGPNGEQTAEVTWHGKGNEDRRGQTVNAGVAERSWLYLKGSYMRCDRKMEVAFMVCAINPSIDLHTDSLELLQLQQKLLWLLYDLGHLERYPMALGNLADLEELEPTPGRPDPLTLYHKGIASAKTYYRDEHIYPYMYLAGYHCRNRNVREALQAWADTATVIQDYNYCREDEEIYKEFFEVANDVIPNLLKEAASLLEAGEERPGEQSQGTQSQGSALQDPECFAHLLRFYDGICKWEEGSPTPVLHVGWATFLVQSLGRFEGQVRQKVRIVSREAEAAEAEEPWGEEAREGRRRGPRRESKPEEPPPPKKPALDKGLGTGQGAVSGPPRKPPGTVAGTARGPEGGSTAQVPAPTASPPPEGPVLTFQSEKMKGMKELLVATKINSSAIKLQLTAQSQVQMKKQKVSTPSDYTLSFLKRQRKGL
Experiment: Menin-MLL interaction inhibitory activity assay (fluorescence polarization competition)
Format: binding
Conditions: FITC-MLL4-43-peptide, Menin recombinant protein
Procedure, shortened: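 Menin (8 nM solution) was preincubated 15 min with compound, then FITC-MLL4-43 peptide (10 nM solution) was added and shaken for 60 min at 25 °C. The buffer was 50 mM Tris pH 7.5, 50 mM NaCl, 1 mM DTT. IC50 was derived from fluorescence polarization read at 485/520 nm.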
`CCN(C(=O)c1cc(F)ccc1Oc1nncnc1N1CC2(CCN(C[C@H]3CC[C@@]4(CCC(=O)N4)CC3)CC2)C1)C(C)C` [Example 7] showed an IC50 of 62.1 nM.
`CC(C)N(C(=O)c1cc(F)ccc1Oc1nncnc1N1CC2(CCN(C[C@H]3CC[C@@]4(CCC(=O)N4)CC3)CC2)C1)C(C)C` [Example 8] showed an IC50 of 67.2 nM.
Work on `CCN(C(=O)c1cc(F)ccc1Oc1nncnc1N1CC2(CCN(C[C@H]3CC[C@]4(CC3)CC(C)(C)C(=O)N4)CC2)C1)C(C)C` [Example 26] yielded an IC50 of 7.4 nM.

System: MV4-11
Experiment: Cell proliferation inhibition (CellTiter-Glo), MV4-11
Format: cell-based
Conditions: Homo sapiens, MV4-11, 72 h, MV4-11 cells
Procedure, shortened: (§1)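 IC50 values come from dose-response fitting of CellTiter-Glo luminescence after 72-168 h compound exposure (final 1 nM-10 μM) at 37° C and 5% CO2, with 5,000-20,000 cells plated per well.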
For `CCN(C(=O)c1cc(F)ccc1Oc1nncnc1N1CC2(CCN(C[C@H]3CC[C@@]4(CCC(=O)N4)CC3)CC2)C1)C(C)C` [Example 7], the GI50 was 137 nM.
Work on `CC(C)N(C(=O)c1cc(F)ccc1Oc1nncnc1N1CC2(CCN(C[C@H]3CC[C@@]4(CCC(=O)N4)CC3)CC2)C1)C(C)C` [Example 8] yielded a GI50 of 197 nM.
In the case of `CCN(C(=O)c1cc(F)ccc1Oc1nncnc1N1CC2(CCN(C[C@H]3CC[C@]4(CC3)CC(C)(C)C(=O)N4)CC2)C1)C(C)C` [Example 26], the GI50 is reported as 19.2 nM.

System: MOLM-13
Experiment: Cell proliferation inhibition (CellTiter-Glo), MOLM-13
Format: cell-based
Conditions: Homo sapiens, MOLM-13, 168 h, MOLM-13 cells
Description: Test Example 2: Test of the Inhibitory Ability of Menin-MLL Interaction Inhibitors on Cell Proliferation
The inhibitory ability of the compounds of the present disclosure on the proliferation of tumor cell lines (including cell lines containing MLL fusion protein such as MV4-11, MOLM-13, THP-1 and NOMO-1, control cell lines without MLL fusion protein such as HL-60, K562 and MOLM-16, and cell lines containing NPM1 mutation such as OCI-AML3) was evaluated by using the cell viability analysis method. The cells were plated in 96-well plates at a certain concentration (e.g., 5,000-20,000 cells/well), and then an equal volume of culture medium containing 2 times the final concentration of the test compound (the final concentration ranging 10 from 1 nM to 10 μM) was added. The plates were placed in an incubator and cultured at 37° C. and 5% CO2 for 72-168 h. Before the test, an equal volume of CellTiter-Glo® Luminescent reagent was added, and the plate was incubated at room temperature for 10 min before detection using an ELISA reader (BMG LABTECH). The data were analyzed using GraphPad Prism software to obtain the IC50 value and compound fitting curve. The control compound 1 was prepared by referring to the method of Example 64 in WO2017214367.
With `CCN(C(=O)c1cc(F)ccc1Oc1nncnc1N1CC2(CCN(C[C@H]3CC[C@@]4(CCC(=O)N4)CC3)CC2)C1)C(C)C` [Example 7] the GI50 was 389 nM.
For `CC(C)N(C(=O)c1cc(F)ccc1Oc1nncnc1N1CC2(CCN(C[C@H]3CC[C@@]4(CCC(=O)N4)CC3)CC2)C1)C(C)C` [Example 8], the GI50 was 96.4 nM.
For `CCN(C(=O)c1cc(F)ccc1Oc1nncnc1N1CC2(CCN(C[C@H]3CC[C@]4(CC3)CC(C)(C)C(=O)N4)CC2)C1)C(C)C` [Example 26], the GI50 was 162 nM.

System: OCI-AML3
Experiment: Cell proliferation inhibition (CellTiter-Glo), OCI-AML3 (NPM1 mutation)
Format: cell-based
Conditions: Homo sapiens, OCI-AML-3, 168 h, OCI-AML3 cells
Procedure, shortened: as §1
In the case of `CCN(C(=O)c1cc(F)ccc1Oc1nncnc1N1CC2(CCN(C[C@H]3CC[C@@]4(CCC(=O)N4)CC3)CC2)C1)C(C)C` [Example 7], the GI50 is reported as 323 nM.
With `CC(C)N(C(=O)c1cc(F)ccc1Oc1nncnc1N1CC2(CCN(C[C@H]3CC[C@@]4(CCC(=O)N4)CC3)CC2)C1)C(C)C` [Example 8] the GI50 was 142 nM.
`CCN(C(=O)c1cc(F)ccc1Oc1nncnc1N1CC2(CCN(C[C@H]3CC[C@]4(CC3)CC(C)(C)C(=O)N4)CC2)C1)C(C)C` [Example 26] showed a GI50 of 94 nM.

System: not listed separately
Experiment: Stability in mouse liver microsomes
Format: in vitro ADME
Conditions: liver microsomes, pH 7.4, 0.5 mg/mL microsomal protein, 1.00 μM compound, NADPH, read-out: Half life T1/2, mouse liver microsomes
Description: (§2) Test Example 3: Test of Stability of Compounds in Liver Microsome
(§3) Test purpose: To determine the stability of some of the compounds of the present disclosure in mouse, dog and human liver microsomes by LC-MS/MS method.
(§4) Test materials: The test drugs were in-house prepared example compounds of the present disclosure; the positive reference compound SNDX-5613 was prepared by the method of Example 253 in patent WO2017214367; the control compound 1 was prepared by the method of Example 64 in WO2017214367; liver microsomes were purchased from CORNING.
(§5) The total volume of each incubation system was approximately 45 μL, and the medium was 100 mM phosphate buffer (PBS, pH 7.4), including liver microsomal protein at a final concentration of 0.5 mg/mL, 1.00 μM compound and 2.00 mM NADPH, and the organic phase content was <1%. Incubation was performed in a 37° C. incubator, and 135 μL of ice-cold acetonitrile was added after 0, 5, 15, 30 and 60 min of reaction to terminate the reaction. The positive control group was incubated with 1.00 μM Ketanserin, 0.5 mg/mL liver microsomal protein and 2.00 mM NADPH in a 37° C. incubator for 0, 5, 15, 30 and 60 min respectively, and then 135 μL of ice-cold acetonitrile was added to terminate the reaction. The 96-well plates were shaken at 600 rpm for 10 min and then centrifuged at 4700 rpm at 4° C. for 15 min. 80 μL of supernatant was mixed with 320 μL of pure water, and the remaining amount of the compound was detected by LC-MS/MS method. The in vitro half life (T½) and intrinsic clearance (CLint) were calculated according to the following formula:
(§6) Intrinsic clearance (Clint)=(0.693/T1/2)×(1/liver microsome concentration)×conversion factor. k is the linear regression slope of the remaining percentage of the ln compound-incubation time.
`CCN(C(=O)c1cc(F)ccc1Oc1nncnc1N1CC2(CCN(C[C@H]3CC[C@@]4(CCC(=O)N4)CC3)CC2)C1)C(C)C` [Example 7] gave a half-life at 1 μM greater than 2 h.
`CC(C)N(C(=O)c1cc(F)ccc1Oc1nncnc1N1CC2(CCN(C[C@H]3CC[C@@]4(CCC(=O)N4)CC3)CC2)C1)C(C)C` [Example 8] gave a half-life at 1 μM of 1.11 h.
With `CCN(C(=O)c1cc(F)ccc1Oc1nncnc1N1CC2(CCN(C[C@H]3CC[C@]4(CC3)CC(C)(C)C(=O)N4)CC2)C1)C(C)C` [Example 26] the half-life at 1 μM was 1.33 h.

System: not listed separately
Experiment: Stability in human liver microsomes
Format: in vitro ADME
Conditions: human, liver microsomes, pH 7.4, Human; 0.5 mg/mL microsomal protein, 1.00 μM compound, NADPH; read-out: Half life T1/2, human liver microsomes
Description: as §2, §3, §4, §5, §6
Compound `CCN(C(=O)c1cc(F)ccc1Oc1nncnc1N1CC2(CCN(C[C@H]3CC[C@@]4(CCC(=O)N4)CC3)CC2)C1)C(C)C` [Example 7] has a half-life at 1 μM of 1.3 h.
With `CC(C)N(C(=O)c1cc(F)ccc1Oc1nncnc1N1CC2(CCN(C[C@H]3CC[C@@]4(CCC(=O)N4)CC3)CC2)C1)C(C)C` [Example 8] the half-life at 1 μM was 0.786 h.
`CCN(C(=O)c1cc(F)ccc1Oc1nncnc1N1CC2(CCN(C[C@H]3CC[C@]4(CC3)CC(C)(C)C(=O)N4)CC2)C1)C(C)C` [Example 26] gave a half-life at 1 μM of 0.618 h.

System: not listed separately
Experiment: Stability in dog liver microsomes
Format: in vitro ADME
Conditions: dog, liver microsomes, pH 7.4, Dog; 0.5 mg/mL microsomal protein, 1.00 μM compound, NADPH; read-out: Half life T1/2, dog liver microsomes
Description: as §2, §3, §4, §5, §6
With `CCN(C(=O)c1cc(F)ccc1Oc1nncnc1N1CC2(CCN(C[C@H]3CC[C@@]4(CCC(=O)N4)CC3)CC2)C1)C(C)C` [Example 7] the half-life at 1 μM was 1 h.
`CC(C)N(C(=O)c1cc(F)ccc1Oc1nncnc1N1CC2(CCN(C[C@H]3CC[C@@]4(CCC(=O)N4)CC3)CC2)C1)C(C)C` [Example 8] gave a half-life at 1 μM of 1.56 h.
`CCN(C(=O)c1cc(F)ccc1Oc1nncnc1N1CC2(CCN(C[C@H]3CC[C@]4(CC3)CC(C)(C)C(=O)N4)CC2)C1)C(C)C` [Example 26] gave a half-life at 1 μM of 1.04 h.
